Assay results published in paper PMC11845477, “Exploring the principles behind antibiotics with limited resistance” (Nature Communications, 2025).

Test system: T1, Pseudomonas aeruginosa ATCC BAA 3107
T1 construct: ATCC BAA-3107
Assay: microbe, parasite or virus in culture
Design: CLSI broth microdilution MIC; OD600 < 0.05 counted as complete growth inhibition
Conditions: Pseudomonas aeruginosa, BAA3107, 18 h; read-out: MIC of ancestor
Experimental: A final concentration of 5 × 10^5 bacterial cells per mL were inoculated into each well containing 60 µL MHB medium. Bacterial cultures were incubated at 37 °C with continuous shaking (Infors shaker, 900 rpm with 3 mm throw) for 18 hours (2 replicates from each). Cell growth was monitored by measuring the optical density (OD600 values, using Biotek Synergy microplate reader). MIC was defined as the antibiotic concentration of complete growth inhibition (i.e., OD600 < 0.05). Relative MIC was calculated as follows:1 relativeMIC=MICevolved/MICancestor This study focused on multiple bacterial strains, as follows. For the FoR and ALE experiments, 2 strains per species were chosen: E. coli ATCC 25922, K. pneumoniae ATCC 10031, A. baumannii ATCC 17978, and P. aeruginosa ATCC BAA-3107 as sensitive (SEN) strains, and E. coli NCTC13846, K. pneumoniae ATCC 700603, A. baumannii ATCC BAA-1605 and P. aeruginosa LESB58 as multi-drug resistant (MDR) strains. Functional metagenomic screens were performed with E. coli ATCC 25922 and K. pneumoniae ATCC 10031 strains. To determine the dose-kill properties of the different antibiotics, an E. coli strain (ATCC 25922) expressing a yellow fluorescent protein (pZS2R, YFP, CHL^R) and a red fluorescent protein (pZS2R, mCherry, CHL^R) was used.

## Nc1nc(-n2cc(C(=O)O)c(=O)c3cc(F)c(N4CC(O)C4)c(Cl)c32)c(F)cc1F [Delafloxacin]
  MIC: 0.0156 µg/mL
